Format in all cases: in vivo
Assay [1] relates to Glycine max (soybean), cv. 'Lambert'. The experiment in a line: Pre-emergence application of herbicide H1 (isoxaflutole) after seed dressing with safener. The note with it: seed dressing with safener 1 g a.i./kg of seed; for Safener action as % damage reduction in crop plants: GLXMA, herbicide H1 (isoxaflutole) 100 g a.i./ha pre-emergence, versus untreated seed; for % damage in GLXMA: then herbicide H1 (isoxaflutole) 100 g a.i./ha pre-emergence, four weeks. How it is done: (§1) The number of crop plant seeds required for each application rate of safener was calculated. Sufficient seeds were weighed-out into glass bottles having a screw-on lid. The volume of the glass bottles was approximately twice that of the seeds weighed out.
(§2) The safeners were formulated as 20 percent strength water-dispersible powders. These formulations were weighed out to give the required application rates (g of a.i./kg of seed). The samples were added to the seed in the glass containers, and sufficient water to form a suitable seed dressing was then added. The glass bottles were closed and then mounted in an overhead shaker (which turns the bottles at moderate speed for a period of up to one hour) so that the seeds were uniformly covered with the seed dressing. The bottles were opened and the seed was ready for use in pre-emergence or post-emergence experiments, as described below.
(§3) The seeds which had been treated with safeners and untreated seeds as controls were sown in sandy loam soil in round plastic pots of a diameter of 13 cm and covered with a layer of sandy loam of a thickness of about 1 cm. The herbicides in the form of liquid (for example emulsion concentrates) or dry (for example water-dispersible powders) formulations were diluted with deionized water to the required concentrations and applied to the surface of the soil with a spray bar using a water application rate of 300 liters per hectare. In the two experiments shown below (results see tables 2.2.1 and 2.2.2), the herbicide isoxaflutole was used as an aqueous suspension concentrate.
(§4) The pots were placed in a greenhouse under favorable growth conditions. Visual scoring of the herbicidal action was carried out four weeks after the herbicide application. Evaluation was carried out on a percentage basis by comparison with untreated control plants (0%=no noticeable effect compared with the untreated plant, 100%=treated plant dies).

Assay [2] relates to Zea mays (corn), cv. 'Lorenzo'. The description is as above. The note with it: seed dressing with safener 1 g a.i./kg of seed; for Safener action as % damage reduction in crop plants: ZEAMA, herbicide H1 (isoxaflutole) 100 g a.i./ha pre-emergence, versus untreated seed; for % damage in ZEAMA: then herbicide H1 (isoxaflutole) 100 g a.i./ha pre-emergence, four weeks. How it is done:
as §1, §2, §3, §4

In a further assay the test system is Setaria viridis. As to the kind of experiment: Post-emergence application of herbicide H2 (foramsulfuron) and safener by the tank mix method: herbicidal action. The following applies: safener 250 g a.i./ha + herbicide H2 (foramsulfuron) 40 g a.i./ha, post-emergence tank mix; four weeks. From the text:
(§5) Seeds of various crop plants and weed species were sown in sandy loam soil in round plastic pots of a diameter of 13 cm and covered with a layer of sandy loam of a thickness of about 1 cm. The pots were placed in a greenhouse under favorable growth conditions for a period of about two to three weeks, allowing the plants to reach a growth stage of 2 to 4 leaves. The herbicides in the form of liquid (for example emulsion concentrates) or dry (for example water-dispersible powders) formulations were mixed with a standard additive (based on rapeseed oil methyl ester), diluted with deionized water to the required concentrations and applied to the green parts of the plants and the uncovered part of the soil surface with a spray bar using a water application rate of 300 liters per hectare. In the experiment shown below, safener and the herbicide foramsulfuron were in each case used as 20 percent strength water-dispersible powder (results see table 1.2.1). The pots were placed in a greenhouse under favorable growth conditions. Visual scoring of the herbicidal action was carried out four weeks after the herbicide application. Evaluation was carried out on a percentage basis by comparison with untreated control plants (0%=no noticeable effect compared with the untreated plant, 100%=treated plant dies).

For the next assay, the system named is Amaranthus retroflexus. The description is as above. The note with it: safener 250 g a.i./ha + herbicide H2 (foramsulfuron) 40 g a.i./ha, post-emergence tank mix; four weeks.
Excerpt: as §5

With `O=C(O)C=Cc1ccccc1O` [Comp. 17, 2-hydroxycinnamic acid], in assay [1], the “Safener action as % damage reduction in crop plants” value is recorded as 60% and the “% damage in GLXMA” value is recorded as 33%. Also, in assay [2], the “Safener action as % damage reduction in crop plants” value was determined as 68% and the “% damage in ZEAMA” value is recorded as 8%. Also, the “Herbicidal action as % damage in SETVI” value in the assay on Setaria viridis is 98%. The “Herbicidal action as % damage in AMARE” value in the assay with Amaranthus retroflexus amounted to 94%.

On to `O=C(O)C=Cc1ccc(Cl)cc1Cl` [Comp. 155, 2,4-dichlorocinnamic acid], for which, in assay [1], the “Safener action as % damage reduction in crop plants” value is given as 64% and the “% damage in GLXMA” value is given as 30%. Moreover, in assay [2], the “Safener action as % damage reduction in crop plants” value is recorded as 72% and the “% damage in ZEAMA” value turned out to be 7%. In the assay on Setaria viridis, the “Herbicidal action as % damage in SETVI” value worked out at 95%. The “Herbicidal action as % damage in AMARE” value in the assay with Amaranthus retroflexus was found to be 98%.

The record behind these values is patent US7838463B2, “Safeners based on acrylic-aliphatic carboxylic acid derivatives” (Bayer CropScience AG, priority 2003, dated 2010).
